19 molecules from US8889704B2 (Array BioPharma Inc., priority 2011, dated 2014) can be followed below.

Holding throughout (type): biochemical
One assay concerns the target PIM-1 (Homo sapiens, UniProt P11309). Briefly: Enzyme PIM-1 Assay ([33P]ATP incorporation into PIM2tide, filter plate). The note with it: averaged IC50; 35 μM ATP, 7.5 μM PIM2tide, 0.25 nM PIM-1, 60 min at 22° C. The procedure, abridged: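 Ten-point, 3-fold dilution series (10 μM top, 2% DMSO final) tested for inhibition of 33P transfer from 35 μM ATP to 7.5 μM PIM2tide by 0.25 nM PIM-1. Reaction 60 min, 22 °C, pH 7.4 MOPS/MgCl2 buffer; phosphocellulose capture, scintillation counting, IC50 where fitted POC equals 50.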

Assay [1] has as its target T1, GST-tagged recombinant full-length human Pim-2 (Homo sapiens, UniProt Q9P1W9).
T1 construct: GST-tagged recombinant full-length human Pim-2; GST
Briefly: PIM-2 Assay (as Example A). The note with it: averaged IC50; 4 μM ATP, 1.0 μM PIM2tide, 1.5 nM Pim-2. The procedure, abridged: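 IC50 was derived by 4-parameter logistic fitting of percent-of-control data over a 10-point, 3-fold series (highest 10 μM, 2% DMSO). Reactions held 1.5 nM GST-Pim-2 (full-length, human), 4 μM [γ-33P]ATP and 1.0 μM PIM2tide for 60 min at 22 °C, pH 7.4; 33P-peptide captured on P81 filters.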

The target in another assay is recombinant rat PIM-3 (Rattus norvegicus, UniProt O70444). Briefly: PIM-3 Assay (as Example A). The following applies: averaged IC50; 30 μM ATP, 3.75 μM PIM2tide, 0.5 nM PIM-3. The procedure, abridged: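 33P incorporation from 30 μM [γ-33P]ATP into 3.75 μM PIM2tide by 0.5 nM rat PIM-3, 60 min at 22 °C in pH 7.4 MOPS buffer, read by P81 filter capture and scintillation counting. Compounds tested in 3-fold dilutions up to 10 μM final, 2% DMSO; percent-of-control data fitted by 4-parameter logistic for IC50.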

pIC50: −log10 of the molar value. Structures can show the parent of a compound that is named as a salt. Some results are limits rather than exact numbers.

PIM-1, sequence (P11309 whole entry, species assumed): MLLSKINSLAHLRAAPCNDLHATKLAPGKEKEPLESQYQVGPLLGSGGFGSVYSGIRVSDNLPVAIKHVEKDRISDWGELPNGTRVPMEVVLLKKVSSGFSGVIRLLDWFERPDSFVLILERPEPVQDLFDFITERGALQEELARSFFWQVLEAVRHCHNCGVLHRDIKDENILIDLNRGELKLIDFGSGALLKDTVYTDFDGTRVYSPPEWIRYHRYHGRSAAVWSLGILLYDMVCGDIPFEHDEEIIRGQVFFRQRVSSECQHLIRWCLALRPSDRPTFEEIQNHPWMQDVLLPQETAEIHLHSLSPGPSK
T1 sequence (Q9P1W9 whole entry): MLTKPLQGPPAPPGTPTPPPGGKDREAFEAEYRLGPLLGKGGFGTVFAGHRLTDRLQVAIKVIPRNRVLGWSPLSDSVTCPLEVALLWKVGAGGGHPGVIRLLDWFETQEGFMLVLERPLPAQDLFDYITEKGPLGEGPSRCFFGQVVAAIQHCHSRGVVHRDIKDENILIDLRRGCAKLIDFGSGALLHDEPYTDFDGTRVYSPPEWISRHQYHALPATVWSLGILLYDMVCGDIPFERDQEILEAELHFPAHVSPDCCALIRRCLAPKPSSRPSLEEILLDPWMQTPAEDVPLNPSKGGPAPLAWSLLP

For the molecule `Cc1cc(OC(C)C)c2nc(-c3nnc4ccc([C@@H](N5CC[C@H](N)C5)C(F)(F)F)cn34)ccc2c1` [Example 128, (S)-1-((R)-2,2,2-trifluoro-1-(3-(8-isopropoxy-6-methylquinolin-2-yl)-[1,2,4]triazolo[4,3-a]pyridin-6-yl)ethyl)pyrrolidin-3-amine hydrochloride], the pIC50 is 9.24 on PIM-1, under 7.00 in assay [1] and 9.15 at recombinant rat PIM-3.

Regarding `CC(C)Oc1cccc2ccc(-c3nnc4ccc([C@@H](N5C[C@@H](N)[C@@H](O)C5)C(F)(F)F)cn34)nc12` [Example 129, (3S,4R)-4-amino-1-((R)-2,2,2-trifluoro-1-(3-(8-isopropoxyquinolin-2-yl)-[1,2,4]triazolo[4,3-a]pyridin-6-yl)ethyl)pyrrolidin-3-ol dihydrochloride], the pIC50 against PIM-1 is 8.80; in assay [1] it was 6.21; at recombinant rat PIM-3 it was 8.11.

Regarding `CC(C)(C)c1cccc2ccc(-c3nnc4ccc([C@@H](N5C[C@@H](N)[C@@H](O)C5)C(F)(F)F)cn34)nc12` [Example 130, (3S,4R)-4-amino-1-((R)-1-(3-(8-tert-butylquinolin-2-yl)-[1,2,4]triazolo[4,3-a]pyridin-6-yl)-2,2,2-trifluoroethyl)pyrrolidin-3-ol dihydrochloride], the pIC50 against PIM-1 is 8.04; in assay [1], 6.12; on recombinant rat PIM-3 it was 7.55.

Regarding `COc1cc2nc(-c3nnc4ccc([C@@H](N5C[C@@H](N)[C@@H](O)C5)C(F)(F)F)cn34)ccc2cc1F` [Example 131, (3S,4R)-4-amino-1-((R)-2,2,2-trifluoro-1-(3-(6-fluoro-7-methoxyquinolin-2-yl)-[1,2,4]triazolo[4,3-a]pyridin-6-yl)ethyl)pyrrolidin-3-ol dihydrochloride], the values for the pIC50 (against PIM-1; in assay [1]; at recombinant rat PIM-3) were 8.66, 6.10 and 7.77, respectively.

For the molecule `CC(C)Oc1cc(F)cc2ccc(-c3nnc4ccc([C@@H](N5C[C@@H](N)[C@@H](O)C5)C(F)(F)F)cn34)nc12` [Example 132, (3S,4R)-4-amino-1-((R)-2,2,2-trifluoro-1-(3-(6-fluoro-8-isopropoxyquinolin-2-yl)-[1,2,4]triazolo[4,3-a]pyridin-6-yl)ethyl)pyrrolidin-3-ol dihydrochloride], the pIC50 at PIM-1 was 8.35; in assay [1], 6.27; at recombinant rat PIM-3, 7.80.

Regarding `N[C@H]1CCN([C@H](c2ccc3nnc(-c4ccc5cc(F)c(OCC6CC6)cc5n4)n3c2)C(F)(F)F)C1` [Example 134, (S)-1-((R)-1-(3-(7-(cyclopropylmethoxy)-6-fluoroquinolin-2-yl)-[1,2,4]triazolo[4,3-a]pyridin-6-yl)-2,2,2-trifluoroethyl)pyrrolidin-3-amine hydrochloride], the pIC50 against PIM-1 was 9.42; in assay [1], 7.32; on recombinant rat PIM-3, 9.22.

With `CC(C)Oc1cc(F)cc2ccc(-c3nnc4ccc([C@H](N5CC[C@H](N)C5)C(F)(F)F)cn34)nc12` [Example 135, (S)-1-((S)-2,2,2-trifluoro-1-(3-(6-fluoro-8-isopropoxyquinolin-2-yl)-[1,2,4]triazolo[4,3-a]pyridin-6-yl)ethyl)pyrrolidin-3-amine hydrochloride], the pIC50 is 8.85 on PIM-1, 7.09 in assay [1] and 8.52 at recombinant rat PIM-3.

For the molecule `COc1cc2nc(-c3nnc4ccc([C@H](N5CC[C@H](N)C5)C(F)(F)F)cn34)ccc2cc1F` [Example 136, (S)-1-((S)-2,2,2-trifluoro-1-(3-(6-fluoro-7-methoxyquinolin-2-yl)-[1,2,4]triazolo[4,3-a]pyridin-6-yl)ethyl)pyrrolidin-3-amine hydrochloride], the pIC50 against PIM-1 was 9.06; in assay [1], 7.02; on recombinant rat PIM-3 it was 8.30.

For `COc1cccc2ccc(-c3nnc4ccc([C@@H](N5C[C@@H](N)[C@@H](O)C5)C(F)(F)F)cn34)nc12` [Example 137, (3S,4R)-4-amino-1-((R)-2,2,2-trifluoro-1-(3-(8-methoxyquinolin-2-yl)-[1,2,4]triazolo[4,3-a]pyridin-6-yl)ethyl)pyrrolidin-3-ol dihydrochloride], the values for the pIC50 (at PIM-1; in assay [1]; at recombinant rat PIM-3) were 8.46, under 6.00 and 7.47, respectively.

`COc1cc2nc(-c3nnc4ccc([C@@H](N5CC[C@H](N)C5)C(F)(F)F)cn34)ccc2cc1C` [Example 138, (S)-1-((R)-2,2,2-trifluoro-1-(3-(7-methoxy-6-methylquinolin-2-yl)-[1,2,4]triazolo[4,3-a]pyridin-6-yl)ethyl)pyrrolidin-3-amine hydrochloride]: the values for the pIC50 (against PIM-1; in assay [1]; on recombinant rat PIM-3) were 8.69, under 7.00 and 8.02, respectively.

As for `COc1ccc2ccc(-c3nnc4ccc([C@@H](N5CC[C@H](N)C5)C(F)(F)F)cn34)nc2c1` [Example 139, (S)-1-((R)-2,2,2-trifluoro-1-(3-(7-methoxyquinolin-2-yl)-[1,2,4]triazolo[4,3-a]pyridin-6-yl)ethyl)pyrrolidin-3-amine dihydrochloride], the pIC50 against PIM-1 was 9.24; in assay [1] it was under 7.00; on recombinant rat PIM-3, 8.31.

`COC[C@@H](C)Oc1cccc2ccc(-c3nnc4ccc([C@@H](N5CC[C@H](N)C5)C(F)(F)F)cn34)nc12` [Example 140, (S)-1-((R)-2,2,2-trifluoro-1-(3-(8-((R)-1-methoxypropan-2-yloxy)quinolin-2-yl)-[1,2,4]triazolo[4,3-a]pyridin-6-yl)ethyl)pyrrolidin-3-amine dihydrochloride]: the pIC50 against PIM-1 was 9.92; in assay [1], 7.27; at recombinant rat PIM-3 it was 9.30.

Turning to `COC[C@H](C)Oc1cccc2ccc(-c3nnc4ccc([C@@H](N5CC[C@H](N)C5)C(F)(F)F)cn34)nc12` [Example 141, (S)-1-((R)-2,2,2-trifluoro-1-(3-(8-((S)-1-methoxypropan-2-yloxy)quinolin-2-yl)-[1,2,4]triazolo[4,3-a]pyridin-6-yl)ethyl)pyrrolidin-3-amine dihydrochloride], the values for the pIC50 (against PIM-1; in assay [1]; on recombinant rat PIM-3) were 9.70, 7.05 and 9.05, respectively.

`CC(C)Oc1ccc2ccc(-c3nnc4ccc([C@@H](N5CC[C@H](N)C5)C(F)(F)F)cn34)nc2c1` [Example 142, (S)-1-((R)-2,2,2-trifluoro-1-(3-(7-isopropoxyquinolin-2-yl)-[1,2,4]triazolo[4,3-a]pyridin-6-yl)ethyl)pyrrolidin-3-amine dihydrochloride]: the pIC50 is 10.05 at PIM-1, 7.36 in assay [1] and 9.30 at recombinant rat PIM-3.

Turning to `COc1ccc2ccc(-c3nnc4ccc([C@@H](N5CC[C@H](N)C5)C(F)(F)F)cn34)nc2c1C1CC1` [Example 143, (S)-1-((R)-1-(3-(8-cyclopropyl-7-methoxyquinolin-2-yl)-[1,2,4]triazolo[4,3-a]pyridin-6-yl)-2,2,2-trifluoroethyl)pyrrolidin-3-amine dihydrochloride], the pIC50 on PIM-1 was 10.05; in assay [1], 7.42; on recombinant rat PIM-3, 9.30.

With `CC1Cc2c(ccc3ccc(-c4nnc5ccc([C@@H](N6CC[C@H](N)C6)C(F)(F)F)cn45)nc23)O1` (stereo partly drawn) [Example 144, (3S)-1-((1R)-2,2,2-trifluoro-1-(3-(8-methyl-8,9-dihydrofuro[2,3-h]quinolin-2-yl)-[1,2,4]triazolo[4,3-a]pyridin-6-yl)ethyl)pyrrolidin-3-amine dihydrochloride], the pIC50 is 9.02 against PIM-1, 7.32 in assay [1] and 9.00 at recombinant rat PIM-3.

With `CC(C)(C)c1cccc2ccc(-c3nnc4ccc([C@@H](N5C[C@@H](N)[C@H](O)C5)C(F)(F)F)cn34)nc12` [Example 145, (3R,4R)-4-amino-1-((R)-1-(3-(8-tert-butylquinolin-2-yl)-[1,2,4]triazolo[4,3-a]pyridin-6-yl)-2,2,2-trifluoroethyl)pyrrolidin-3-ol dihydrochloride], the figures for the pIC50 (against PIM-1; in assay [1]; at recombinant rat PIM-3) were 9.60, 7.52 and 9.15, respectively.

On to `CC(C)Oc1cccc2ccc(-c3nnc4ccc([C@@H](N5C[C@@H](N)[C@H](O)C5)C(F)(F)F)cn34)nc12` [Example 146, (3R,4R)-4-amino-1-((R)-2,2,2-trifluoro-1-(3-(8-isopropoxyquinolin-2-yl)-[1,2,4]triazolo[4,3-a]pyridin-6-yl)ethyl)pyrrolidin-3-ol dihydrochloride], for which the pIC50 is 9.89 at PIM-1, 7.47 in assay [1] and 9.52 on recombinant rat PIM-3.

On to `CC(C)Oc1cc(F)cc2ccc(-c3nnc4ccc([C@@H](N5C[C@@H](N)[C@H](O)C5)C(F)(F)F)cn34)nc12` [Example 147, (3R,4R)-4-amino-1-((R)-2,2,2-trifluoro-1-(3-(6-fluoro-8-isopropoxyquinolin-2-yl)-[1,2,4]triazolo[4,3-a]pyridin-6-yl)ethyl)pyrrolidin-3-ol dihydrochloride], for which the pIC50 at PIM-1 was 9.96; in assay [1], 7.44; on recombinant rat PIM-3 it was 9.52.

Usually pIC50 stands for the negative decadic logarithm of the IC50, by convention in mol/L.
